Patent US10059667B2, “Antidiabetic compounds” (MERCK SHARP & DOHME CORP., priority 2014, dated 2018)
pEC50: −log10 of the molar value.

How the values were obtained:
Assay type in all cases: cell-based
Human GPR40 [1] = molecular target: T1, Human GPR40 (Homo sapiens (Human), UniProt O14842); assay: Inositol Phosphate Turnover (IP1) Assay 1, HEK cells stably expressing human GPR40, 3H-inositol SPA; conditions: HEK cells stably expressing human GPR40, 96-well
Outline: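 HEK cells stably expressing human GPR40, labelled 18 h with 3H-myo-inositol in inositol-free medium with 0.4% human or mouse albumin. LiCl added 20 min at 37 degrees, then compound 60 min at 37 degrees; formic acid lysates counted by YSi SPA beads for inositol phosphates.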

Human GPR40 [2] = molecular target: T1, Human GPR40; assay: FLIPR assay, agonist-induced calcium mobilization in GPR40/CHO NFAT BLA cells
Experimental: (§1) Human and mouse GPR40 stable cell-lines were generated in CHO cells stably expressing NFAT BLA (Beta-lactamase). A human GPR40 stable cell-line was generated in HEK cells stably expressing the aequorin expressing reporter. The expression plasmids were transfected using lipofectamine (Life Technologies) following manufacturer's instructions. Stable cell-lines were generated following drug selection.
FLIPR (Fluorimetric Imaging Plate Reader, Molecular Devices) assays were performed to measure agonist-induced calcium mobilization of the stable clones. For the FLIPR assay, one day before assay, GPR40/CHO NFAT BLA cells were seeded into black-wall-clear-bottom 384-well plates (Costar) at 1.4×10e4 cells/20 μL medium/well. The cells were incubated with 20 μl/well of the assay buffer (HBSS, 0.1% BSA, 20 mM HEPES, 2.5 mM probenecid, pH 7.4) containing 8 μM fluo-4, AM, 0.08% pluronic acid at room temperature for 100 minutes. Fluorescence output was measured using FLIPR. Compounds were dissolved in DMSO and diluted to desired concentrations with assay buffer. 13.3 μL/well of compound solution was added.

Human GPR40 [3] = molecular target: T1, Human GPR40; assay: Inositol Phosphate Turnover (IP1) Assay 2, HEK cells stably expressing human GPR40, CisBio IP-One kit; conditions: HEK cells stably expressing human GPR40, 384-well
Experimental: as §1
The assay was performed in 384-well format. HEK cells stably expressing human GPR40 were plated at 15,000 cells per well in growth medium (DMEM/10% fetal calf serum). Cell plates were then incubated 16 hours at 37 degrees in a 5% CO2 incubator.
Measurement of Inositol Phosphate Turnover (IP1) was performed using the CisBio IP-One kit (Part number 62IPAPEB). After the 16 hour incubation, the cells were washed with HEPES buffer and 10 ul of stimulation buffer (prepared as described in the kit) was added to each well. In a separate plate, compounds were diluted in DMSO (400-fold over the final concentration in the assay well) and 25 nl was acoustically transferred to the appropriate well in the assay cell plate.
The plates were then incubated for 60 minutes at 37 degrees. 10 ul of detection buffer (also prepared as described in the IP-One kit) was added to each well and the plates were incubated for 60 minutes in the dark. The plates were then read in a Perkin Elmer EnVision or equivalent reader able to measure FRET. Fluorescent ratio of emission at 665 and 620 nm was then converted to IP1 concentration by back calculating from an IP1 standard curve prepared at the time of the assay.

T1 sequence (O14842 whole entry): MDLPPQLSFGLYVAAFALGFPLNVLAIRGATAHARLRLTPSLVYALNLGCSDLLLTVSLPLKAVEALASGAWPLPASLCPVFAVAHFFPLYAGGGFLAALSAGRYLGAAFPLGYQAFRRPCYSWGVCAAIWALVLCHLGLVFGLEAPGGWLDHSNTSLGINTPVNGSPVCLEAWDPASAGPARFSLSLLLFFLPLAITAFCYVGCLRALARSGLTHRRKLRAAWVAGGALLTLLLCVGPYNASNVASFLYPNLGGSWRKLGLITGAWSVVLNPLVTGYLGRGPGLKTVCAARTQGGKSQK

SMILES | EC50 (Human GPR40 [1]) | pEC50 (Human GPR40 [2]) | EC50 (Human GPR40 [3])
CC1(C)CN(Cc2cc(C(F)(F)F)ccc2C(F)(F)F)CC1COc1cccc([C@@H](CC(=O)O)C2CC2)c1 (stereo partly drawn) [Example 22, (3S)-3-(3-((1-(2,5-Bis(trifluoromethyl)benzyl)-4,4-dimethylpyrrolidin-3-yl)methoxy)phenyl)-3-cyclopropylpropanoic acid] | 2610 nM | 7.07 | –
CC1(COc2cccc([C@@H](CC(=O)O)C3CC3)c2)CCN(Cc2cc(C(F)(F)F)ccc2C(F)(F)F)C1 (stereo partly shown) [Example 43] | 952 nM | 6.64 | –
CC(c1ccccc1C(F)(F)F)N1CC(COc2cccc([C@@H](CC(=O)O)C3CC3)c2)C1 (stereo partly shown) [Example 55] | 904 nM | 8.14 | –
COc1cc(C2CC(COc3cccc([C@H](C4CC4)[C@H](C)C(=O)O)c3)C2)c(F)cn1 (single isomer, unassigned) [Example 91] | – | – | 7.4 nM
CC(c1ccccc1Cl)N1CC(COc2cccc([C@@H](CC(=O)O)C3CC3)c2)C1 (stereo partly shown) [Example 52] | 5640 nM | 6.79 | –
CC(c1cc(C(F)(F)F)ccc1C(F)(F)F)N1CC(COc2cccc([C@@H](CC(=O)O)C3CC3)c2)C1 (stereo partly shown) [Example 54] | 27 nM | 9.22 | –
COc1ccc(F)cc1CN1CCC(COc2cccc([C@@H](CC(=O)O)C3CC3)c2)C1 (stereo partly drawn) [Example 20, (3S)-3-Cyclopropyl-3-(3-((1-(5-fluoro-2-methoxybenzyl)pyrrolidin-3-yl)methoxy)phenyl)propanoic acid] | 10000 nM | 6.58 | –
C[C@H](C(=O)O)[C@H](c1cccc(OC2CN(Cc3cc(C(F)(F)F)ccc3C(F)(F)F)C2)c1)C1CC1 [Example 32] | 764 nM | 7.23 | –
COc1cc(C2CC(COc3cccc([C@H](C4CC4)[C@H](C)C(=O)O)c3)C2)c(F)cn1 (single isomer, unassigned) [Example 90] | – | – | 96 nM
O=C(O)C[C@H](c1cccc(OC2CCN(Cc3cc(C(F)(F)F)ccc3Cl)C2)c1)C1CC1 (stereo partly shown) [Example 42] | 1120 nM | 7.03 | –
O=C(O)C[C@H](c1cccc(OCCC2CN(Cc3cc(C(F)(F)F)ccc3C(F)(F)F)C2)c1)C1CC1 [Example 18, (S)-3-(3-(2-(1-(2,5-Bis(trifluoromethyl)benzyl)azetidin-3-yl)ethoxy)phenyl)-3-cyclopropylpropanoic acid] | 3710 nM | 6.44 | –
CC1(COc2cccc([C@@H](CC(=O)O)C3CC3)c2)CN(Cc2cc(C(F)(F)F)ccc2C(F)(F)F)C1 [Example 6, (S)-3-(3-((1-(2,5-Bis(trifluoromethyl)benzyl)-3-methylazetidin-3-yl)methoxy)phenyl)-3-cyclopropylpropanoic acid] | 2720 nM | 7.02 | –

Further compounds by falling EC50 (Human GPR40 [1]), results first:

EC50 (Human GPR40 [1]) | pEC50 (Human GPR40 [2]) | EC50 (Human GPR40 [3]) | SMILES
613 nM | 7.68 | – | C[C@H](C(=O)O)[C@H](c1cccc(OCC2CN(Cc3cc(C(F)(F)F)ccc3C(F)(F)F)CCO2)c1)C1CC1 (stereo partly shown) [Example 28]
527 nM | 6.74 | – | CC(c1cc(C(F)(F)F)ccc1Cl)N1CC(COc2cccc([C@@H](CC(=O)O)C3CC3)c2)C1 (stereo partly shown) [Example 60]
524 nM | 8.13 | – | O=C(O)C[C@H](c1cccc(OC2CCCN(Cc3cc(C(F)(F)F)ccc3C(F)(F)F)C2)c1)C1CC1 (stereo partly drawn) [Example 24, (3S)-3-(3-((1-(2,5-Bis(trifluoromethyl)benzyl)piperidin-3-yl)oxy)phenyl)-3-cyclopropylpropanoic acid]
449 nM | 7.24 | – | CC(c1cc(F)ccc1Cl)N1CC(COc2cccc([C@@H](CC(=O)O)C3CC3)c2)C1 (stereo partly shown) [Example 51]
366 nM | 6.95 | – | CC(c1cc(C(F)(F)F)ccc1C1CC1)N1CC(COc2cccc([C@@H](CC(=O)O)C3CC3)c2)C1 (stereo partly shown) [Example 58]
279 nM | 7.48 | – | C[C@H](C(=O)O)[C@H](c1cccc(OCC2CN(c3cccc(C(F)(F)F)n3)C2)c1)C1CC1 [Example 30]
217 nM | 8.40 | – | CC(Oc1cccc([C@H](C2CC2)[C@H](C)C(=O)O)c1)C1CN(Cc2cc(C(F)(F)F)ccc2C(F)(F)F)C1 (stereo partly drawn) [Example 9, (2S,3R)-3-(3-(1-(1-(2,5-Bis(trifluoromethyl)benzyl)azetidin-3-yl)ethoxy)phenyl)-3-cyclopropyl-2-methylpropanoic acid]
89 nM | 8.72 | – | C[C@H](C(=O)O)[C@H](c1cccc(O[C@H]2CCCN(Cc3cc(C(F)(F)F)ccc3C(F)(F)F)C2)c1)C1CC1 [Example 1, (2S,3R)-3-(3-(((S)-1-(2,5-bis(trifluoromethyl)benzyl)piperidin-3-yl)oxy)phenyl)-3-cyclopropyl-2-methylpropanoic acid]
23 nM | – | 13 nM | COc1cc(C2CC(COc3cccc([C@H](C4CC4)[C@H](C)C(=O)O)c3)C2)c(F)cn1 (stereo partly shown) [Example 87]
